According to patent publication US8426342B2, “Method for weed control in lawn” (priority 2008, dated 2013):

Columns and labels:
Assay in all cases: Effectivity testing against weed plants ex. 5.1, Abbott %
Stellaria media = type: in vivo
Text: (§1) Each plot was divided by different pre-treatments 1 week before application of the trial treatments: • A) Pre-treatment with glyphosate-isopropylammonium allowing to evaluate in this section the pre-emergence effect against weeds. • B) No pre-treatment, present winter annual weeds are received a post-emergence application.
(§2) 2005, applied on dormant turf in winter
(§3) Effectivity was rated in percent (%) herbicidal effect compared with untreated control according to the method of Abbott according to the formula [(X−Y)/X]100 where X is the absolute level/scoring of the control plants, Y is the level/scoring of the treated plants. 100% efficacy means full control; 0% efficacy means no control of the weed; all ratings above 80% are usually acceptable.

Veronica arvensis = type: in vivo
Text: as §1, §2, §3

Lamium amplexcaule = type: in vivo, Lamium amplexicaule
Text: as §1, §2, §3

Cc1ccc2c(c1)[C@H](Nc1nc(N)nc([C@@H](C)F)n1)[C@@H](C)C2 (stereo in doubt) [(A21)/(A22), indaziflam]
Herbicidal effect (%) on Stellaria media, Post-emergence application without pre-treatment (Stellaria media; 25 g a.i./ha, 124 DAT): 100%
Herbicidal effect (%) on Stellaria media, Pre-emergence application after pre-treatment (Stellaria media; 25 g a.i./ha, 124 DAT): 75%
Herbicidal effect (%) on Stellaria media, Post-emergence application without pre-treatment (Stellaria media; 25 g a.i./ha, 151 DAT): 100%
Herbicidal effect (%) on Stellaria media, Pre-emergence application after pre-treatment (Stellaria media; 25 g a.i./ha, 151 DAT): 71%
Herbicidal effect (%) on Stellaria media, Post-emergence application without pre-treatment (Stellaria media; 50 g a.i./ha, 124 DAT): 100%
Herbicidal effect (%) on Stellaria media, Pre-emergence application after pre-treatment (Stellaria media; 50 g a.i./ha, 124 DAT): 100%
Herbicidal effect (%) on Stellaria media, Post-emergence application without pre-treatment (Stellaria media; 50 g a.i./ha, 151 DAT): 100%
Herbicidal effect (%) on Stellaria media, Pre-emergence application after pre-treatment (Stellaria media; 50 g a.i./ha, 151 DAT): 100%
Herbicidal effect (%) on Stellaria media, Post-emergence application without pre-treatment (Stellaria media; 75 g a.i./ha, 124 DAT): 100%
Herbicidal effect (%) on Stellaria media, Pre-emergence application after pre-treatment (Stellaria media; 75 g a.i./ha, 124 DAT): 100%
Herbicidal effect (%) on Stellaria media, Post-emergence application without pre-treatment (Stellaria media; 75 g a.i./ha, 151 DAT): 100%
Herbicidal effect (%) on Stellaria media, Pre-emergence application after pre-treatment (Stellaria media; 75 g a.i./ha, 151 DAT): 100%
Herbicidal effect (%) on Veronica arvensis, Post-emergence application without pre-treatment (Veronica arvensis; 25 g a.i./ha, 123 DAT): 100%
Herbicidal effect (%) on Veronica arvensis, Pre-emergence application after pre-treatment (Veronica arvensis; 25 g a.i./ha, 123 DAT): 81%
Herbicidal effect (%) on Veronica arvensis, Post-emergence application without pre-treatment (Veronica arvensis; 25 g a.i./ha, 157 DAT): 94%
Herbicidal effect (%) on Veronica arvensis, Pre-emergence application after pre-treatment (Veronica arvensis; 25 g a.i./ha, 157 DAT): 100%
Herbicidal effect (%) on Veronica arvensis, Post-emergence application without pre-treatment (Veronica arvensis; 50 g a.i./ha, 123 DAT): 75%
Herbicidal effect (%) on Veronica arvensis, Pre-emergence application after pre-treatment (Veronica arvensis; 50 g a.i./ha, 123 DAT): 100%
Herbicidal effect (%) on Veronica arvensis, Post-emergence application without pre-treatment (Veronica arvensis; 50 g a.i./ha, 157 DAT): 100%
Herbicidal effect (%) on Veronica arvensis, Pre-emergence application after pre-treatment (Veronica arvensis; 50 g a.i./ha, 157 DAT): 100%
Herbicidal effect (%) on Veronica arvensis, Post-emergence application without pre-treatment (Veronica arvensis; 75 g a.i./ha, 123 DAT): 100%
Herbicidal effect (%) on Veronica arvensis, Pre-emergence application after pre-treatment (Veronica arvensis; 75 g a.i./ha, 123 DAT): 100%
Herbicidal effect (%) on Veronica arvensis, Post-emergence application without pre-treatment (Veronica arvensis; 75 g a.i./ha, 157 DAT): 100%
Herbicidal effect (%) on Veronica arvensis, Pre-emergence application after pre-treatment (Veronica arvensis; 75 g a.i./ha, 157 DAT): 100%
Herbicidal effect (%) on Lamium amplexcaule, Post-emergence application without pre-treatment (Lamium amplexcaule; 25 g a.i./ha, 124 DAT): 91%
Herbicidal effect (%) on Lamium amplexcaule, Pre-emergence application after pre-treatment (Lamium amplexcaule; 25 g a.i./ha, 124 DAT): 58%
Herbicidal effect (%) on Lamium amplexcaule, Post-emergence application without pre-treatment (Lamium amplexcaule; 25 g a.i./ha, 151 DAT): 50%
Herbicidal effect (%) on Lamium amplexcaule, Pre-emergence application after pre-treatment (Lamium amplexcaule; 25 g a.i./ha, 151 DAT): 40%
Herbicidal effect (%) on Lamium amplexcaule, Post-emergence application without pre-treatment (Lamium amplexcaule; 50 g a.i./ha, 124 DAT): 89%
Herbicidal effect (%) on Lamium amplexcaule, Pre-emergence application after pre-treatment (Lamium amplexcaule; 50 g a.i./ha, 124 DAT): 100%
Herbicidal effect (%) on Lamium amplexcaule, Post-emergence application without pre-treatment (Lamium amplexcaule; 50 g a.i./ha, 151 DAT): 67%
Herbicidal effect (%) on Lamium amplexcaule, Pre-emergence application after pre-treatment (Lamium amplexcaule; 50 g a.i./ha, 151 DAT): 90%
Herbicidal effect (%) on Lamium amplexcaule, Post-emergence application without pre-treatment (Lamium amplexcaule; 75 g a.i./ha, 124 DAT): 83%
Herbicidal effect (%) on Lamium amplexcaule, Pre-emergence application after pre-treatment (Lamium amplexcaule; 75 g a.i./ha, 124 DAT): 100%
Herbicidal effect (%) on Lamium amplexcaule, Post-emergence application without pre-treatment (Lamium amplexcaule; 75 g a.i./ha, 151 DAT): 67%
Herbicidal effect (%) on Lamium amplexcaule, Pre-emergence application after pre-treatment (Lamium amplexcaule; 75 g a.i./ha, 151 DAT): 100%
